Data reported in US11865158B2, “Process and composition matter of nanoparticle formulation for systemic treatment of sepsis” (PURDUE RESEARCH FOUNDATION, priority 2019, dated 2024).
Like-named read-outs stand apart in the source and are kept apart here.

Legend:
[1] = test system: J774a.1 macrophages; assay: Effect on cell membrane, SEM; assay type: cell-based; settings: eq. to 150 μg/mL PMB, 12 h
Method: Effect of PMB and D-TZP on cell membrane. The effect of D-TZP on J774A.1 cell membrane was monitored by two methods (scanning electron microscopy and confocal microscopy). For scanning electron microscopy, J774A.1 macrophages were plated in a 6-well plate at a density of 3×10^5 cells per well with 3 mL of complete medium. After overnight incubation at 37° C. in a 5% CO2 atmosphere, the cells were treated with either free PMB or D-TZP at a concentration equivalent to 150 μg/mL PMB for 12 h. The cells were centrifuged at 233 relative centrifugal force (rcf) for 3 min. The medium was removed, and 2.5% glutaraldehyde solution was added for fixation overnight at 4° C. The cells were then rinsed three times with water (5 min each) and incubated in 2% Osmium tetroxide for 1 h. After rinsing another three times with water (5 min each), the cells were dehydrated with a series of ethanol gradients (50%, 75%, 95%) for 10 minutes at each step. The dehydrated cells were rinsed with 100% ethanol three times for 10 minutes each time, stored in a 1:1 mixture of HMDS and ethanol in 1:1 for 30 min, and rinsed with 100% HMDS for 30 min twice. After overnight drying, the cells were placed on a carbon tape attached to an aluminum stud and coated with platinum for SEM analysis. The morphology of treated J774a.1 cells then was observed by a FEI NOVA NanoSEM scanning electron microscope (SEM). […]

[2] = test system: LPS-induced NF-kB/AP-1 activation in THP1-XBlue-MD2-CD14 cells; assay: In vitro anti-LPS activity, SEAP reporter assay, LPS pretreated and supernatant added to cells; assay type: cell-based, human; settings: 10 ng/mL LPS, equivalent to PMB 9.5-18.9 μg/mL
Method: To investigate if D-TZP can neutralize LPS, a reporter cell line responding to LPS was incubated with LPS and free PMB or D-TZP's (with different amounts of PMB). THP1-XBlue-MD2-CD14, derived from the human monocytic THP-1 cell line, overexpresses MD2 and CD14 to amplify the response to TLR4 agonist LPS. Color change of the Quanti-Blue reagent (NF-kB/AP-1-inducible secreted embryonic alkaline phosphatase (SEAP) reporter protein) reflects NF-kB/AP-1 activation due to LPS. LPS-induced SEAP production was measured at 620 nm. The reporter cells with 10 ng/mL of LPS expressed a high level of SEAP as compared to non-challenged cells. […] A supernatant was obtained from each mixture to separate unbound LPS and added to THP1-XBlue-MD2-CD14 cells.
In vitro anti-LPS activity. Five microliters of LPS ([…]) was mixed with 15 μL of free PMB, D-TZP, or TZP at different concentrations in a flat-bottom 96-well plate. THP1-XBlue-MD2-CD14 cell suspension (10^5 cells in 180 μL) was then added to the mixtures. After 24 h incubation, cells were centrifugated at 233 rcf for 5 min. Twenty microliters of the cell medium was mixed with the Quanti-Blue reagent. After 2 h incubation, the color was measured at 620 nm by a Spectra Max M3 microplate reader (Molecular Devices, Sunnyvale, CA). […] The medium was analyzed in the same manner as above.

[3] = test system: C57BL/6 male mice; settings: known value, cited from earlier work
[4] = test system: cecal ligation and puncture (CLP) model; assay: Therapeutic efficacy in cecal ligation and puncture (CLP) polymicrobial sepsis model; assay type: in vivo, C57BL/6 mice; settings: IV 2 h post-CLP and every 2 days, max three times; D-TZP and TZP 10 mg/kg PMB eq., free PMB 5 mg/kg
Method: The efficacy of systemic […] was further tested in cecal ligation and puncture (CLP) model, which induces systemic inflammation by polymicrobial infection and thus simulates a clinically relevant septic state (Toscano, M. G. et al., JoVE, e2860 (2011)). D-TZP and TZP was administered IV at 10 mg/kg PMB eq. 2 h post-CLP and every subsequent 2 days a maximum total of three times. Free PMB was given at 5 mg/kg IV in the same schedule as D-TZP.
Therapeutic efficacy in polymicrobial sepsis model by cecal ligation and puncture (CLP). The efficacy of D-TZP and TZP was evaluated in a cecal ligation and puncture (CLP) model, the gold standard of polymicrobial sepsis model. The abdomen of 6 week-old C57BL/6 male was cleaned with a hair-removal cream (Nair, Church & Dwight Co., Inc). The mice were anesthetized by 2.5% isofluorane. Betadine 0.5% solution and 70% isopropyl alcohol swap were alternately applied three times to disinfect the shaved abdomen. Midline laparotomy was performed under an aseptic condition to exteriorize the cecum. The cecum was ligated below the ileocecal valve with a 5-0 suture (perma-hand silk, Ethicon) and perforated twice with 20 G needle on the same side of the cecum to release feces into the peritoneal cavity. After perforation, the intestines were returned to abdominal cavity. […] Animals were monitored as described in the endotoxemia model.

**Q.** Which “cell membrane morphology by SEM” value [1] does the source give for polymyxin B [PMB] here?
**A.** deformed membrane morphology

**Q.** And the “SEAP production, LPS pretreated for 1 h, supernatant added to cells” value [2]?
**A.** significant reduction in SEAP production

**Q.** What about the LD50 ([3]; IP) of the same substance?
**A.** 20 mg/kg

**Q.** And the LD50 ([3]; IV)?
**A.** 5 mg/kg

**Q.** And the survival [4]?
**A.** 33%
